ChEMBL document CHEMBL1155737, “Antillatoxin B, a neurotoxic lipopeptide from the marine cyanobacterium Lyngbya majuscula” (J Nat Prod, 2001)

How the values were obtained:
[1] = Activation of voltage-sensitive sodium channel in mouse neuro2a cells; format: cell-based; conditions: N2a
[2] = Ichthyotoxicity in Carassius auratus; format: organism-based; conditions: in vivo

Row | SMILES | EC50 [1] [nM] | LC50 [2] [nM]
1 | C=C1CC(=O)N[C@@H](C)C(=O)N(C)[C@@H](CCc2ccccc2)C(=O)NCC(=O)O[C@@H](/C(C)=C/C(C)=C/C(C)(C)C)[C@@H]1C [ANTILLATOXIN B] | 1770 | 1000
2 | C=C1CC(=O)N[C@@H](C)C(=O)N(C)[C@@H](C(C)C)C(=O)NCC(=O)O[C@@H](/C(C)=C/C(C)=C/C(C)(C)C)[C@@H]1C [ANTILLATOXIN] | 180 | –
